Laboratory results published in PMC6222832, “Kinetic Characterization of Novel HIV-1 Entry Inhibitors: Discovery of a Relationship between Off-Rate and Potency” (Molecules : A Journal of Synthetic Chemistry and Natural …, 2018).

Columns and labels:
[1] = test system: HIV-1 JR-CSF Env pseudotyped HIV-1; assay: microbe, parasite or virus in culture; type: cell-based; conditions: Human immunodeficiency virus 1, U87/CD4/CCR5, 48 h, read-out: IC50 JR-CSF
[2] = test system: HIV-1 B41 Env pseudotyped HIV-1; assay: microbe, parasite or virus in culture; type: cell-based; conditions: Human immunodeficiency virus 1, U87/CD4/CCR5, 48 h, read-out: IC50 B41
[3] = test system: HIV-1B41 and HIV-1JR-CSF Env pseudotyped virions; assay: microbe, parasite or virus in culture; type: cell-based; conditions: Human immunodeficiency virus 1, read-out: Median IC50
[4] = target: B41 SOSIP.664 gp140 trimer (Human immunodeficiency virus type 1, UniProt B3UES2, A505C/E513R/I563P/INS515RR/K514R/T609C); type: binding, HIV-1
in vitro = conditions: human
[5] = target: HIV-1 B41 SOSIP.664 gp140 trimer (Human immunodeficiency virus type 1, UniProt B3UES2, A505C/E513R/I563P/INS515RR/K514R/T609C); type: binding

## COc1cnc(-n2cnc(C)n2)c2[nH]cc(C(=O)C(=O)N3CC4CN(C(=O)c5ccccc5)CC4C3)c12 (centres unmarked) [SC11]
[1]
  IC50: 0.6 ± 0.1 nM
[2]
  IC50: 2 ± 0.2 nM
[3]
  IC50: ~2 nM
[4]
  ka: 4330 M⁻¹ s⁻¹
  kd: 0.000287 s⁻¹
In vitro
  CC50 at 48 h: > 50000 nM

## COc1cnc(-n2cnc(C)n2)c2[nH]cc(C(=O)C(=O)N(C)C3CN(C(=O)c4ccccc4)C3)c12 [SC18]
[1]
  IC50: 132 ± 4 nM
[2]
  IC50: 360 ± 12 nM
[3]
  IC50: 246 nM
[4]
  ka: 15900 M⁻¹ s⁻¹
  kd: 0.0248 s⁻¹
In vitro
  CC50 at 48 h: > 50000 nM

## COc1cnc(-n2cnc(C)n2)c2[nH]cc(C(=O)C(=O)N3CC4C=NN(c5nnnn5-c5ccccc5)C4C3)c12 (centres unmarked) [SC39]
[1]
  IC50: 143 ± 52 nM
[2]
  IC50: 5320 ± 260 nM
[3]
  IC50: 2730 nM
[4]
  ka: 1390 M⁻¹ s⁻¹
  kd: 0.0381 s⁻¹
In vitro
  CC50 at 48 h: > 50000 nM

## COc1cnc(-n2cnc(C)n2)c2[nH]cc(C(=O)C(=O)N3CCN(C(=O)c4ccccc4)CC3)c12 [BMS-626529, reference compound]
[1]
  IC50: 0.06 ± 0.005 nM
[2]
  IC50: 0.05 ± 0.006 nM
[3]
  IC50: 0.055 nM
[5]
  ka: 38900 M⁻¹ s⁻¹
  kd: 0.00059 s⁻¹

## COc1cnc(-n2cnc(C)n2)c2[nH]cc(C(=O)C(=O)N3CC(CSC(=O)c4ccccc4)C3)c12 [SC16]
[1]
  IC50: 29 ± 8 nM
[2]
  IC50: 37 ± 5 nM
[3]
  IC50: 33 nM
[4]
  ka: 86200 M⁻¹ s⁻¹
  kd: 0.00598 s⁻¹
In vitro
  CC50 at 48 h: > 50000 nM
